From US7598417B2, “Substituted fluoroethyl ureas as alpha 2 adrenergic agents” (Allergan, Inc., priority 2007, dated 2009)

Columns and labels:
Type in all cases: cell-based
alpha2A receptor = target: T1, alpha2A receptor (Homo sapiens, UniProt P08913); assay: Receptor Selection and Amplification Technology (RSAT) assay, alpha2A; details: for Alpha 2A EC50 / EC50: RSAT, NIH-3T3 cells cotransfected with receptor and Gq/i5, not active = not active at concentrations less than 10 micromolar; for EC50: read-out: Alpha 2A EC50; for Alpha 2A IA (intrinsic activity): ratio of maximal effect of the drug to maximal effect of standard full agonist brimonidine (UK14304)
T1 construct: expressed in transfected cells; host or cells: NIH-3T3
T1 sequence (P08913 1-465): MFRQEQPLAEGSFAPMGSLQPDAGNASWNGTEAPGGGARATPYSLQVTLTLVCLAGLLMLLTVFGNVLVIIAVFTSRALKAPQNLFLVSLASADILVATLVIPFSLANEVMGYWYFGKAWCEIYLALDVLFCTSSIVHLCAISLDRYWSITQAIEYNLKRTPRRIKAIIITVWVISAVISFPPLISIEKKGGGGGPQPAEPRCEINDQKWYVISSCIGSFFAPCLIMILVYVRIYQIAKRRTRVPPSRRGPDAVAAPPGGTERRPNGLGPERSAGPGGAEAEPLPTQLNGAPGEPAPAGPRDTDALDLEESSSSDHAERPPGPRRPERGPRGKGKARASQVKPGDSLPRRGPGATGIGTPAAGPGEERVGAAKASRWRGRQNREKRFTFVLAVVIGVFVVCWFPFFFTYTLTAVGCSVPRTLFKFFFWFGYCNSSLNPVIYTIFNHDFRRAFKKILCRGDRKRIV
Description: (§1) Receptor Selection and Amplification Technology (RSAT) Assay
(§2) The RSAT assay measures a receptor-mediated loss of contact inhibition that results in selective proliferation of receptor-containing cells in a mixed population of confluent cells. The increase in cell number is assessed with an appropriate transfected marker gene such as β-galactosidase, the activity of which can be easily measured in a 96-well format. Receptors that activate the G protein, Gq, elicit this response. Alpha2 receptors, which normally couple to Gi, activate the RSAT response when coexpressed with a hybrid Gq protein that has a Gi receptor recognition domain, called Gq/i5.
(§3) NIH-3T3 cells are plated at a density of 2×10^6 cells in 15 cm dishes and maintained in Dulbecco's modified Eagle's medium supplemented with 10% calf serum. One day later, cells are cotransfected by calcium phosphate precipitation with mammalian expression plasmids encoding p-SV-β-galactosidase (5-10 μg), receptor (1-2 μg) and G protein (1-2 μg). 40 μg salmon sperm DNA may also be included in the transfection mixture. Fresh media is added on the following day and 1-2 days later, cells are harvested and frozen in 50 assay aliquots. Cells are thawed and 100 μl added to 100 μl aliquots of various concentrations of drugs in triplicate in 96-well dishes. Incubations continue 72-96 hr at 37° C. After washing with phosphate-buffered saline, β-galactosidase enzyme activity is determined by adding 200 μl of the chromogenic substrate (consisting of 3.5 mM o-nitrophenyl-β-D-galactopyranoside and 0.5% nonidet P-40 in phosphate buffered saline), incubating overnight at 30° C. and measuring optical density at 420 nm. The absorbance is a measure of enzyme activity, which depends on cell number and reflects a receptor-mediated cell proliferation. The efficacy or intrinsic activity is calculated as a ratio of the maximal effect of the drug to the maximal effect of a standard full agonist for each receptor subtype. Brimonidine, also called UK14304, the chemical structure of which is shown below, is used as the standard agonist for the alpha2A, alpha2B and alpha2C receptors. The EC50 is the concentration at which the drug effect is half of its maximal effect.
(§4) EC50 values are nanomolar. NA stands for “not active” at concentrations less than 10 micromolar. IA stands for “intrinsic activity.”

alpha2B receptor = target: T2, alpha2B receptor (Homo sapiens, UniProt P18089); assay: Receptor Selection and Amplification Technology (RSAT) assay, alpha2B; details: for EC50: read-out: Alpha 2B EC50; for Alpha 2B IA (intrinsic activity): ratio of maximal effect of the drug to maximal effect of standard full agonist brimonidine (UK14304)
T2 construct: expressed in transfected cells; host or cells: NIH-3T3
T2 sequence (P18089 1-450): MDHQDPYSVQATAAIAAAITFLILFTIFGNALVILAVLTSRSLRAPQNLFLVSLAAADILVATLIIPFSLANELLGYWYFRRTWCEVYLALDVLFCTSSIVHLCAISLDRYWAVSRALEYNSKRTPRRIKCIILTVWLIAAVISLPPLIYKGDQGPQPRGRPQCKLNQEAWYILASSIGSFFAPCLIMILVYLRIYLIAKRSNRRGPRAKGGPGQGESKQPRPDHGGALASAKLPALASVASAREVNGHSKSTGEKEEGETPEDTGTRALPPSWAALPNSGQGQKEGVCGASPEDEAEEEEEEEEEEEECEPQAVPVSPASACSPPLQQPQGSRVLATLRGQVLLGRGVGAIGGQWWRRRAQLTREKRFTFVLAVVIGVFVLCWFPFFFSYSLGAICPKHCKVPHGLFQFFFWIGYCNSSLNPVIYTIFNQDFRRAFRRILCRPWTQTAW
Description: as §1, §2, §3
The results of the RSAT assay with several exemplary compounds of the invention are disclosed in Table 1 above together with the chemical formulas of these exemplary compounds. EC50 values are nanomolar. NA stands for “not active” at concentrations less than 10 micromolar. IA stands for “intrinsic activity.”

alpha2C receptor = target: T3, alpha2C receptor (Homo sapiens, UniProt P18825); assay: Receptor Selection and Amplification Technology (RSAT) assay, alpha2C; details: for Alpha 2C EC50 / EC50: RSAT, NIH-3T3 cells cotransfected with receptor and Gq/i5, not active = not active at concentrations less than 10 micromolar; for EC50: read-out: Alpha 2C EC50; for Alpha 2C IA (intrinsic activity): ratio of maximal effect of the drug to maximal effect of standard full agonist brimonidine (UK14304)
T3 construct: expressed in transfected cells; host or cells: NIH-3T3
T3 sequence (P18825 1-462): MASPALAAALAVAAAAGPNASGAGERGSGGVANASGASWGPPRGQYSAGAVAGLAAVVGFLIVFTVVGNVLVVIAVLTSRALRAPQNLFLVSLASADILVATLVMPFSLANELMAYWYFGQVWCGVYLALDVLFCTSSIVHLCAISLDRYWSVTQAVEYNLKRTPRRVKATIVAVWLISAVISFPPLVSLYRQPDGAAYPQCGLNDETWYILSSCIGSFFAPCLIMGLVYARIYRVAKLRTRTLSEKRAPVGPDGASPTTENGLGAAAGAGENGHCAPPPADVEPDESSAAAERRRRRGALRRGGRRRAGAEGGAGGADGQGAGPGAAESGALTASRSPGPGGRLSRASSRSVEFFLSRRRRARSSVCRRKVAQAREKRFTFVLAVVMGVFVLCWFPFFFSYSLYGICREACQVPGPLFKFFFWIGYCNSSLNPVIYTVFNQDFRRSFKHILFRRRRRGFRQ
Description: as §1, §2, §3, §4

[1] = RSAT, NIH-3T3 cells cotransfected with receptor and Gq/i5, not active = not active at concentrations less than 10 micromolar

Structure (SMILES)	Alpha 2A EC50 (alpha2A receptor)	EC50 (alpha2B receptor; [1]) [nM]	Alpha 2B IA (intrinsic activity) (alpha2B receptor)	Alpha 2C EC50 (alpha2C receptor)	EC50 (alpha2A receptor) [nM]	Alpha 2A IA (intrinsic activity) (alpha2A receptor)	EC50 (alpha2C receptor) [nM]	Alpha 2C IA (intrinsic activity) (alpha2C receptor)	Alpha 2B EC50 (alpha2B receptor; [1])
O=C(NCCF)NC1Cc2cccc(Br)c2C1 (centres unmarked)	not active	156	0.45	not active	–	–	–	–	–
CCC[C@@H]1CCCC[C@H]1NC(=O)NCCF	–	1740	0.84	not active	1470	0.4	–	–	–
O=C(NCCF)NCC1CCc2ccccc21 (centres unmarked)	not active	380	0.76	–	–	–	> 2000	0.38	–
O=C(NCCF)NC1Cc2cccc(Cl)c2C1 (centres unmarked)	not active	15.4	0.67	–	–	–	12.5	0.44	–
CCc1cccc2c1CCCC2NC(=O)NCCF (centres unmarked)	–	158	0.93	–	450	0.32	904	0.34	–
COc1cccc2c1CCC2NC(=O)NCCF (centres unmarked)	–	121	0.72	–	2070	0.48	1110	0.59	–
Cc1cccc2c1C(NC(=O)NCCF)CC2 (centres unmarked)	–	26.8	0.6	–	189	0.43	197	0.62	–
O=C(NCCF)N[C@H]1CCc2ccccc21	not active	1.6	1.0	–	–	–	17.5	0.47	–
O=C(NCCF)NC1CCc2cccc(Cl)c21 (centres unmarked)	–	7.2	1.05	–	29	0.68	103	0.78	–
O=C(NCCF)NC1Cc2ccc(Cl)cc2C1 (centres unmarked)	not active	1780	0.31	not active	–	–	–	–	–
O=C(NCCF)NC1CCc2c(Cl)cccc21 (centres unmarked)	–	2.5	1.03	–	34.9	1.05	116	1.1	–
Cc1ccc2c(c1)CCC2NC(=O)NCCF (centres unmarked)	not active	247	0.71	not active	–	–	–	–	–
CC1CCC(NC(=O)NCCF)c2ccccc21 (centres unmarked)	–	21	0.89	–	331	0.34	282	0.45	–
O=C(NCCF)NC1CCc2cccc(Br)c21 (centres unmarked)	–	20	1.01	–	111	0.52	716	0.97	–
O=C(NCCF)NC1CCc2c(F)cccc21 (centres unmarked)	–	1.8	1.05	–	130	0.76	107	0.68	–
COc1cccc2c1CCCC2NC(=O)NCCF (centres unmarked)	–	291	0.84	–	2350	0.37	872	0.51	–
O=C(NCCF)NC1CCc2c(O)cccc21 (centres unmarked)	–	9.6	0.96	–	186	0.53	73	0.73	–
CC1CC(NC(=O)NCCF)c2ccccc21 (centres unmarked)	not active	10.9	0.96	–	–	–	168	0.43	–
Cc1ccc2c(c1C)C(NC(=O)NCCF)CC2 (centres unmarked)	not active	649	0.64	not active	–	–	–	–	–
COc1ccc2c(c1)CCC2NC(=O)NCCF (centres unmarked)	not active	–	–	–	–	–	1440	0.35	not active
O=C(NCCF)NC1CCc2cc(Br)ccc21 (centres unmarked)	not active	2620	0.31	–	–	–	1260	0.31	–
Cc1cccc2c1CC(NC(=O)NCCF)C2 (centres unmarked)	not active	100	0.98	–	–	–	454	0.4	–
COc1ccc2c(c1)C(NC(=O)NCCF)CCC2 (centres unmarked)	not active	824	0.78	not active	–	–	–	–	–
Cc1cc(C)c2c(c1)C(NC(=O)NCCF)CCC2 (centres unmarked)	–	27	0.91	–	109	0.49	391	0.58	–
